Test results from patent publication US6337402B2, “Asymmetrical bisbenzotriazoles substituted by a perfluoroalkyl moiety and compositions stabilized therewith” (Ciba Specialty Chemicals Corporation, priority 1999, dated 2002).

Experiment: not given
Conditions: not given

| SMILES | melting point |
| --- | --- |
| CC(C)(C)c1cc(Cc2cc(C(C)(C)C)cc(-n3nc4ccc(S(=O)(=O)c5ccccc5)cc4n3)c2O)c(O)c(-n2nc3ccc(S(=O)(=O)c4ccccc4)cc3n2)c1 [A, 2,2′-Methylene-bis[6-(5-phenylsulfonyl-2H-benzotriazol-2-yl)-4-tert-butylphenol]] | 224 to 234 °C |

Experiment: Bisbenzotriazole solubility in adhesive GELVA 263
Type: physicochemical
Conditions: in GELVA 263 polyacrylate adhesive; approximate maximum concentration with no sign of crystallization after solvent evaporation; weight added to GELVA 263 as is
Description: To measure the solubility of the instant bisbenzotriazole UV absorber in an adhesive composition, the compound is added to a typical adhesive GELVA® 263 (Solutia) which is a 44.5% solution of a polyacrylate in a mixture of ethyl acetate and hexane. The polyacrylate is a copolymer of methyl methacrylate, 2-ethylhexyl methacrylate and glycidyl methacrylate.
The test compound is dissolved in 5 mL of ethyl acetate, toluene or a mixture of ethyl acetate and toluene. To the solution is added 5 g of GELVA® 263. 2-3 mL of the resulting solution is place into individual watch glasses. Solubility is then evaluated based upon observed crystallization once the solvent has evaporated. Observations start after several hours and then continue over a period of several weeks.
Solubilities are reported in weight of total bisbenzotriazole added to GELVA® 263 as is.

| SMILES | Solubility without Crystallization (%) |
| --- | --- |
| CC(C)(C)CC(C)(C)c1cc(Cc2cc(C(C)(C)C)cc(-n3nc4ccc(S(=O)(=O)c5ccccc5)cc4n3)c2O)c(O)c(-n2nc3ccc(C(F)(F)F)cc3n2)c1 [G, Methylene-2-[4-tert-butyl-6-(5-phenylsulfonyl-2H-benzotriazol-2-yl)phenol]-2′-[4-tert-octyl-6-(5-trifluoromethyl-2H-benzotriazol-2-yl)phenol]] | 22.0% |
| CC(C)(C)CC(C)(C)c1cc(Cc2cc(C(C)(C)C)cc(-n3nc4ccc(Sc5ccccc5)cc4n3)c2O)c(O)c(-n2nc3ccc(C(F)(F)F)cc3n2)c1 [H, Methylene-2-[4-tert-butyl-6-(5-phenylthio-2H-benzotriazol-2-yl)phenol]-2′-[4-tert-octyl-6-(5-trifluoromethyl-2H-benzotriazol-2-yl)phenol]] | 22.0% |
| CC(C)(C)c1cc(-n2nc3ccc(Cl)cc3n2)c(O)c(C(C)(C)C)c1 [C, 5-chloro-2-(2-hydroxy-3,5-di-tert-butylphenyl)-2H-benzotriazole] | 2.0% |
| CC(C)(C)CC(C)(C)c1cc(Cc2cc(C(C)(C)CC(C)(C)C)cc(-n3nc4ccc(C(F)(F)F)cc4n3)c2O)c(O)c(-n2nc3ccccc3n2)c1 [D, methylene-2-[4-tert-octyl-6-(2H-benzotriazol-2-yl)phenol]-2′-[4-tert-octyl-6-(5-trifluoromethyl-2H-benzotriazol-2-yl)phenol]] | 2.0% |
| CC(C)(c1ccccc1)c1cc(-n2nc3ccccc3n2)c(O)c(C(C)(C)c2ccccc2)c1 [B, 2-(2-hydroxy-3,5-di-α-cumylphenyl)-2H-benzotriazole] | 2.0% |
| CC(C)(C)c1cc(Cc2cc(C(C)(C)C)cc(-n3nc4ccc(S(=O)(=O)c5ccccc5)cc4n3)c2O)c(O)c(-n2nc3ccc(S(=O)(=O)c4ccccc4)cc3n2)c1 [A, 2,2′-Methylene-bis[6-(5-phenylsulfonyl-2H-benzotriazol-2-yl)-4-tert-butylphenol]] | 0.0% |
| CC(C)(C)CC(C)(C)c1cc(Cc2cc(C(C)(C)C)cc(-n3nc4ccc(Cl)cc4n3)c2O)c(O)c(-n2nc3ccc(C(F)(F)F)cc3n2)c1 [F, Methylene-2-[4-tert-butyl-6-(5-chloro-2H-benzotriazol-2-yl)phenol]-2 ′-[4-tert-octyl-6-(5-trifluoromethyl-2H-benzotriazol-2-yl)phenol]] | 11.0% |
| CC(C)(C)CC(C)(C)c1cc(Cc2cc(C(C)(C)CC(C)(C)C)cc(-n3nc4ccc(C(F)(F)F)cc4n3)c2O)c(O)c(-n2nc3ccc(C(F)(F)F)cc3n2)c1 [E, 2,2′-methylene-bis[6-(5-trifluoromethyl-2H-benzotriazol-2-yl)-4-tert-octylphenol]] | 4.0% |
